Test results published in US20170246311A1, “PEPTIDES FOR BINDING ALTERNATIVELY ACTIVATED MACROPHAGES” (University of Washington, priority 2016, published 2017).
Entries after “also recorded” stand apart in the source; their conditions may differ. Positions of bridges follow the written chain, without caps; N, C: chain ends. Non-standard residues stand in square brackets, D forms with d. Residues, ends and D or L forms follow the SMILES beside them. *: point of attachment. Biotin = O=C1N[C@H]2[C@H](CS[C@H]2CCCCC(=O)*)N1; Hyp = O=C(O)[C@@H]1C[C@@H](O)CN1

Tests used:
[1] = Serum stability study in normal mouse serum, analysis by MALDI-TOF MS; conditions: mouse serum
Description: The peptide of interest (30 μL of 10 mg/mL stock solution in dH2O) was added to normal mouse serum (300 μL) and incubated at 37° C. in an incubator. At each time point, an aliquot of 40 μL was drawn and an equal volume of ACN was added to the aliquot to precipitate serum proteins. The cloudy mixture was centrifuged at 10,000 rpm for 5 min and then supernatant removed. A solution of 1:1 H2O/ACN (80 μL) was added to the pellet and sonicated for 10 min to further extract the remaining peptides. This resuspended mixture was then centrifuged, and the supernatant was pooled with the former and vacuum-dried on a Speedvac machine. The dried pellet was solubilized in H2O (50 μL) by sonication for 10 min. The mixture was then centrifuged, and the supernatant was drawn and analyzed by MALDI-TOF MS.
To evaluate serum stability of M2pep, the peptide was incubated in mouse serum, and aliquots of the serum at various time points were withdrawn for analysis of degradation patterns by MALDI-TOF MS.
Different M2pep analogs (30 μL from 10 mg/mL stock solution in H2O) were incubated in normal mouse serum (300 μL) at 37° C. in an incubator. An aliquot of the serum (40 μL) was drawn at different time intervals and precipitated with an equal volume of cold ACN. The mixture was centrifuged at 15,000 rpm for 5 min, and the supernatant was collected. A solution of H2O/ACN (1:1 v/v, 80 μL) was added to the pellet with a 10-min sonication to further extract residual peptides. The mixture was then centrifuged. The supernatant was pooled with the former and dried under vacuum on a Speedvac machine. The peptide pellet was resuspended in H2O (50 μL) with a 10-min sonication before analysis by MALDI-ToF MS.

M2 macrophages = assay: Binding study of biotinylated peptides on polarized bone marrow-derived macrophages (streptavidin-FITC, flow cytometry); type: cell-based, mouse; conditions: for binding activity to M2 macrophages (in words): biotinylated peptide, on ice 20 min
Description: All animal handling protocols were approved by the University of Washington Institutional Animal Care and Use Committee. Bone marrow harvest was performed following the previously reported protocol. Briefly, femur and tibia were excised from 6-8 week-old female c57bl6/027 mice. Cuts were made on the ends of each bone, and RPMI 1640 medium was used to flush out bone marrow cells via 18G needle. The cells were cultured on petri dishes in RPMI 1640 medium supplemented with 20% donor horse serum, 1% antibiotic-antimycotic (AbAm), and 20 ng/mL M-CSF. After 7 d of culture, macrophages were activated by replacing M-CSF with 25 ng/mL IFN-γ and 100 ng/mL LPS for M1 macrophage or 25 ng/mL IL-4 for M2 macrophage. The macrophages were activated for 2 d and then scraped off the petri dishes with cell lifter for binding studies.
Peptide solutions at different concentrations for binding study were prepared by dilutions from the stock solution (10 mg/mL in dH2O) with PBS containing 1% BSA (PBSA). M1 and M2 macrophages (50,000 cells/well) were seeded on a black 96-well plate and incubated in the peptide solutions on ice for 20 min. Unbound peptides were washed off with PBSA twice. The macrophages were subsequently incubated with streptavidin-FITC for 15 min on ice to probe for the bound peptides. Excess streptavidin-FITC was washed off with PBSA twice, and the macrophages were then resuspended in PBS for analysis by MACSQuant Flow Cytometer (Miltenyi Biotec, San Diego, Calif.). Propidium iodide was added to the samples before the data acquisition to discriminate dead cells. Flow cytometry data were analyzed with FlowJo Analysis Software (Tree Star, Ashland, Oreg.). Binding study of peptides post serum incubation was similarly performed with the following additions: The peptides (5 mM stock solution in H2O) were diluted in serum to a final concentration of 0.5 mM and incubated at 37° C. in an incubator. At each time point, an aliquot of the peptides was drawn and diluted in PBS to the final concentration for the binding study. The diluted aliquot was heated at 80° C. for 30 min to inactivate serum proteins, stored in a −20° C. freezer, and thawed for use in the binding study after aliquots at all time points were collected.
All animal handling protocols were approved by the University of Washington Institutional Animal Care and Use Committee. Bone marrow-derived cells were harvested from female c57bl/6 mice as previously described. In brief, femurs and tibias of the mice were excised and flushed with RPMI 1640 medium via an 18G needle. The cells were cultured on petri dishes containing RPMI 1640 medium supplemented with 20% donor horse serum, 1% antibioticantimycotic (AbAm), and 20 ng/mL M-CSF. After 7 d in culture, the medium was replaced with an activation medium whereby M-CSF was replaced with 25 ng/mL IFN-γ and 100 ng/mL LPS for M1 activation or with 25 ng/mL IL-4 for M2 activation. For M1 activation medium, AbAm was replaced with 1% penicillin-streptomycin (Pen-Strep). After 2 d of activation, the activated macrophages were scraped off the petri dishes for binding studies.
Biotinylated peptide stock solutions were prepared in H2O at 10 mg/mL concentration and quantified for the exact concentration using Quant*Tag Biotin quantification kit. The stock solutions were diluted in PBS with 1% BSA (PBSA) to different concentrations for binding studies. Activated macrophages were seeded on a black 96-well plate (50,000 cells/well) and incubated with the peptide solutions for 20 min on ice. The cells were washed twice with PBSA and subsequently incubated with streptavidin-FITC for 15 min on ice. After two additional washes, the cells were resuspended in PBS for analysis via MACSQuant Flow Cytometer (Miltenyi Biotec, San Diego, Calif.). Propidium iodide (PI) was added before running each sample to assess for cell viability. Data analysis was processed on FlowJo Analysis Software (Tree Star, Ashland, Oreg.). […]

Compound	binding activity to M2 macrophages (in words) (M2 macrophages)	other results
CC(=O)N[C@@H](Cc1ccc(O)cc1)C(=O)N[C@@H](CCC(=O)O)C(=O)N[C@@H](CCC(N)=O)C(=O)N[C@@H](CC(=O)O)C(=O)N1CCC[C@H]1C(=O)N[C@@H](Cc1c[nH]c2ccccc12)C(=O)NCC(=O)N[C@H](C(=O)N[C@@H](CCCNC(=N)N)C(=O)N[C@@H](Cc1ccc(O)cc1)C(=O)N[C@@H](Cc1c[nH]c2ccccc12)C(=O)N[C@@H](Cc1ccc(O)cc1)C(=O)NCC(=O)NCC(=O)NCC(=O)N[C@@H](CO)C(=O)N[C@H](CCCCN)C(=O)N[C@H](CCCCN)C(=O)N[C@H](CCCCN)C(=O)N[C@@H](CCCCNC(=O)CCCC[C@@H]1SC[C@@H]2NC(=O)N[C@@H]21)C(N)=O)C(C)C [AcM2pep(RY)Biotin, Ac-YEQDPWGVRYWYGGGSkkk] (Ac-YEQDPWGVRYWYGGGS[dK][dK][dK]K(Biotin)-NH2)	did not improve the binding activity any further compared to the K9R analog; also recorded: highest affinity linear M2pep analog	serum stability at the W10/W11 endolytic cleavage site [1]: did not improve serum stability at the W10/W11 site
CC(=O)N[C@@H](Cc1ccc(O)cc1)C(=O)N[C@@H](CCC(=O)O)C(=O)N[C@@H](CCC(N)=O)C(=O)N[C@@H](CC(=O)O)C(=O)N1CCC[C@H]1C(=O)N[C@@H](Cc1c[nH]c2ccccc12)C(=O)NCC(=O)N[C@H](C(=O)N[C@@H](CCCCN)C(=O)N[C@@H](Cc1c[nH]c2ccccc12)C(=O)N[C@@H](Cc1c[nH]c2ccccc12)C(=O)N[C@@H](Cc1ccc(O)cc1)C(=O)NCC(=O)NCC(=O)NCC(=O)N[C@@H](CO)C(=O)N[C@@H](CCCCN)C(=O)N[C@@H](CCCCN)C(=O)N[C@@H](CCCCN)C(=O)N[C@@H](CCCCNC(=O)CCCC[C@@H]1SC[C@@H]2NC(=O)N[C@@H]21)C(N)=O)C(C)C [AcM2pepBiotin, Ac-YEQDPWGVKWWYGGGSKKK]	slight, but not statistically significant, reduction in binding activity	N-terminal (exolytic) degradation in serum [1]: resistant to N-terminal degradation; overall serum stability (in words) ([1]; 37° C., MALDI-TOF MS): did not improve the overall serum stability; binding selectivity to M2 macrophages over M1 macrophages (M2 macrophages; M2 versus M1 macrophages): retained binding selectivity to M2 macrophages over M1 macrophages
Fc1c(F)c(F)c(-c2c(F)c(F)c(F)c(F)c2F)c(F)c1F [DFBP, decafluorobiphenyl, reference compound]	negligible binding to M2 macrophages	
CC(=O)N[C@@H](Cc1ccc(O)cc1)C(=O)N[C@@H](CCC(=O)O)C(=O)N[C@@H](CCC(N)=O)C(=O)N[C@@H](CC(=O)O)C(=O)N1CCC[C@H]1C(=O)N[C@@H](Cc1c[nH]c2ccccc12)C(=O)NCC(=O)N[C@H](C(=O)N[C@@H](CCCNC(=N)N)C(=O)N[C@@H](Cc1c[nH]c2ccccc12)C(=O)N[C@@H](Cc1c[nH]c2ccccc12)C(=O)N[C@@H](Cc1ccc(O)cc1)C(=O)NCC(=O)NCC(=O)NCC(=O)N[C@@H](CO)C(=O)N[C@@H](CCCCN)C(=O)N[C@@H](CCCCN)C(=O)N[C@@H](CCCCN)C(=O)N[C@@H](CCCCNC(=O)CCCC[C@@H]1SC[C@@H]2NC(=O)N[C@@H]21)C(N)=O)C(C)C [K9R, Ac-YEQDPWGVRWWYGGGSKKK]	significantly increased binding activity	serum stability at the W10/W11 endolytic cleavage site [1]: did not confer protection at the W10/W11 site
CC(=O)N[C@@H](Cc1ccc(O)cc1)C(=O)N[C@@H](CCC(=O)O)C(=O)N[C@@H](CCC(N)=O)C(=O)N[C@@H](CC(=O)O)C(=O)N1C[C@H](O)C[C@H]1C(=O)N[C@@H](Cc1c[nH]c2ccccc12)C(=O)NCC(=O)N[C@H](C(=O)N[C@@H](CCCNC(=N)N)C(=O)N[C@@H](Cc1ccc(O)cc1)C(=O)N[C@@H](Cc1c[nH]c2ccccc12)C(=O)N[C@H](Cc1ccc(O)cc1)C(=O)NCC(=O)NCC(=O)NCC(=O)N[C@@H](CO)C(=O)N[C@H](CCCCN)C(=O)N[C@H](CCCCN)C(=O)N[C@H](CCCCN)C(=O)N[C@@H](CCCCNC(=O)CCCC[C@@H]1SC[C@@H]2NC(=O)N[C@@H]21)C(N)=O)C(C)C [P5Hyp, Ac-YEQD(Hyp)WGVRYWyGGGSkkk] (Ac-YEQD[Hyp]WGVRYW[dY]GGGS[dK][dK][dK]K(Biotin)-NH2)	significantly ablated the binding activity	
CC(=O)N[C@@H](CCCNC(=N)N)C(=O)N[C@@H](Cc1ccc(O)cc1)C(=O)N[C@@H](CCC(=O)O)C(=O)N[C@@H](CCC(N)=O)C(=O)N[C@@H](CC(=O)O)C(=O)N1CCC[C@H]1C(=O)N[C@@H](Cc1c[nH]c2ccccc12)C(=O)NCC(=O)N[C@H](C(=O)N[C@@H](CCCNC(=N)N)C(=O)N[C@@H](Cc1ccc(O)cc1)C(=O)N[C@@H](Cc1c[nH]c2ccccc12)C(=O)N[C@H](Cc1ccc(O)cc1)C(=O)NCC(=O)NCC(=O)NCC(=O)N[C@@H](CO)C(=O)N[C@H](CCCCN)C(=O)N[C@H](CCCCN)C(=O)N[C@H](CCCCN)C(=O)N[C@@H](CCCCNC(=O)CCCC[C@@H]1SC[C@@H]2NC(=O)N[C@@H]21)C(N)=O)C(C)C [R0, Ac-RYEQDPWGVRYWyGGGSkkk] (Ac-RYEQDPWGVRYW[dY]GGGS[dK][dK][dK]K(Biotin)-NH2)	did not improve binding activity any further	
Cc1cn(C)nn1 [Triazole-cyclized M2pep(RY)Biotin]	bind less strongly	
CC(=O)N[C@@H](Cc1ccc(O)cc1)C(=O)N[C@@H](CCC(=O)O)C(=O)N[C@@H](CCC(N)=O)C(=O)N[C@@H](CC(=O)O)C(=O)N1CCC[C@H]1C(=O)N[C@@H](Cc1c[nH]c2ccccc12)C(=O)NCC(=O)N[C@H](C(=O)N[C@@H](CCCCN)C(=O)N[C@H](Cc1c[nH]c2ccccc12)C(=O)N[C@H](Cc1c[nH]c2ccccc12)C(=O)N[C@@H](Cc1ccc(O)cc1)C(=O)NCC(=O)NCC(=O)NCC(=O)N[C@@H](CO)C(=O)N[C@@H](CCCCN)C(=O)N[C@@H](CCCCN)C(=O)N[C@@H](CCCCN)C(=O)N[C@@H](CCCCNC(=O)CCCC[C@@H]1SC[C@@H]2NC(=O)N[C@@H]21)C(N)=O)C(C)C [W(10,11)w, Ac-YEQDPWGVKwwYGGGSKKK]	did not restore the binding activity	
CC(C)[C@@H]1NC(=O)CNC(=O)[C@H](Cc2c[nH]c3ccccc23)NC(=O)[C@@H]2CCCN2C(=O)[C@H](CC(=O)O)NC(=O)CNC(=O)[C@@H](N)CSSC[C@@H](C(=O)N[C@H](CCCCN)C(=O)N[C@H](CCCCN)C(=O)N[C@H](CCCCN)C(=O)N[C@@H](CCCCNC(=O)CCCC[C@@H]2SC[C@@H]3NC(=O)N[C@@H]32)C(N)=O)NC(=O)CNC(=O)[C@H](Cc2c[nH]c3ccccc23)NC(=O)[C@H](Cc2ccc(O)cc2)NC(=O)[C@H](CCCNC(=N)N)NC1=O [cRYW, CGDPWGVRYWGCkkk] (H-CGDPWGVRYWGC[dK][dK][dK]K(Biotin)-NH2; disulfide 1-12)	significantly lower binding activity compared to cyclic M2pep(RY)Biotin	
CC(C)[C@@H]1NC(=O)CNC(=O)[C@H](Cc2c[nH]c3ccccc23)NC(=O)[C@@H]2CCCN2C(=O)[C@H](CC(=O)O)NC(=O)CNC(=O)[C@@H](N)CSSC[C@@H](C(=O)N[C@H](CCCCN)C(=O)N[C@H](CCCCN)C(=O)N[C@H](CCCCN)C(=O)N[C@@H](CCCCNC(=O)CCCC[C@@H]2SC[C@@H]3NC(=O)N[C@@H]32)C(N)=O)NC(=O)CNC(=O)[C@H](Cc2ccc(O)cc2)NC(=O)[C@H](Cc2c[nH]c3ccccc23)NC(=O)[C@H](Cc2ccc(O)cc2)NC(=O)[C@H](CCCNC(=N)N)NC1=O [cRYWY, CGDPWGVRYWYGCkkk] (H-CGDPWGVRYWYGC[dK][dK][dK]K(Biotin)-NH2; disulfide 1-13)	significantly lower binding activity compared to cyclic M2pep(RY)Biotin	
Biotin-Ahx-GRGRGRG(C-DFBP)G [reference compound]	binds very weakly to macrophages even at 100 μM	
